Results on 17 compounds are retold here after ChEMBL document CHEMBL5370678, “Covalent Stapling of the Cereblon Sensor Loop Histidine Using Sulfur-Heterocycle Exchange” (ACS Med Chem Lett, 2023).

Data set [1] in a line: Binding affinity to human StrepTag-Avi-CRBN-His6-Spy-fused DDB1deltaB mutant complex expressed in baculovirus infected high-five insect cells assessed as labeling of His353 residue at 15 uM measured after 24 hrs by LC-MS analysis relative to control. The following applies: Insect cell.
Data set [2] is described as follows: Stability of the compound in human plasma assessed as half life at 1 uM by LC-MS/MS analysis. It counts as ADME, cell-free.
The next data set deals with MOLT-4. In words: Induction of protein degradation in human MOLT-4 cells at 1 uM measured after 5 hrs by LC-MS analysis. In kind it is functional, cell-based.
A short description of data set [3]: Cytotoxicity against human MOLT-4 cells assessed as reduction in cell viability incubated for 24 hrs by CellTiter Glo Luminescent cell viability assay. In kind it is toxicity, cell-based. (In general: ATP-based viability assays read luminescence as a measure of living cells.)
Data set [4] can be described thus: Stability of the compound in human liver microsomes assessed as half life at 1 uM by LC-MS/MS analysis. In kind it is ADME, Microsome.
Data set [5] in a line: Stability of the compound in human hepatocytes assessed as half life at […] by LC-MS/MS analysis. In kind it is ADME, cell-based, Hepatocyte.
A short description of data set [6]: Drug metabolism in human plasma assessed as glutarimide-hydrolysis at 10 uM measured after 120 mins by LC-UV-MS analysis. It counts as ADME, cell-free. Particulars: 2 h.
Data set [7] is described as follows: Drug metabolism in human plasma assessed as sulfonyl imidazole motif hydrolysis at 10 uM measured after 120 mins by LC-UV-MS analysis. In kind it is ADME, cell-free. Particulars: 2 h.
In the next data set the target is Protein cereblon (Homo sapiens, UniProt Q96SW2). In words: Displacement of BODIPY-lenalidomide from human N-terminal NanoLuc-fused CRBN expressed in HEK293T cells incubated for 2 hrs by NanoBRET assay. It counts as cell-based. Background: Bioluminescence resonance energy transfer reports proximity on the nanometre scale.
Sequence of Protein cereblon (Q96SW2 whole entry, the tested form may be a part): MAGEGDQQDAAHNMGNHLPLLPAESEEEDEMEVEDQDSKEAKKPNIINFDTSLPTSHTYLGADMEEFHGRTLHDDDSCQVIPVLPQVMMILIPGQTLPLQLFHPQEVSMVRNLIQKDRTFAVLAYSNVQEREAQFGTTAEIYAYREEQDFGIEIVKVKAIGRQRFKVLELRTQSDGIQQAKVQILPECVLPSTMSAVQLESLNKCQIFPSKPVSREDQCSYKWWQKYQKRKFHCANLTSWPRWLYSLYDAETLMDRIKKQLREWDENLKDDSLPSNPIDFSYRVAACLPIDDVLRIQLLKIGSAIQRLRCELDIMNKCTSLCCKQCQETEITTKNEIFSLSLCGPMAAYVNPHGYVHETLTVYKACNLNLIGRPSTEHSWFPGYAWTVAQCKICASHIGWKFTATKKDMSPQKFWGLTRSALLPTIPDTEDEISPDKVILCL

Usually half-life stands for the time in which the quantity being followed falls by half. As a reminder, the CC50 is the concentration at which the toxic effect on the cells reaches its halfway point. The IC50 is the point on the concentration scale where inhibition reaches its midpoint. A high value points to a need for much substance.

Activity calls are given as the source filed them. No cut-off for these calls is given here. Where only a bound is given, the exact number is not on record here.

Take `O=C1CCC(N2Cc3ccc(S(=O)(=O)n4nccn4)cc3C2=O)C(=O)N1` (centres undefined): in data set [1], the Activity turned out to be 90%.

Take `O=C1CCC(N2Cc3ccc(S(=O)(=O)n4ccc(F)n4)cc3C2=O)C(=O)N1` (centres undefined): the half-life at 1 µM in [2] was 1.92 h. The Activity in data set [1] amounted to 37%.

Take `O=C1CCC(N2Cc3ccc(S(=O)(=O)n4cc(C(F)(F)F)cn4)cc3C2=O)C(=O)N1` (centres undefined): the half-life at 1 µM in data set [2] was found to be 0.167 h. Besides, in [1], the Activity came to 90%.

Turning to `Nc1ccn(S(=O)(=O)c2ccc3c(c2)C(=O)N(C2CCC(=O)NC2=O)C3)c(=O)n1` (centres undefined), in data set [2], the half-life at 1 µM is over 4.82 h. The Activity in data set [1] came out at 55%.

`Cc1cn(S(=O)(=O)c2ccc3c(c2)C(=O)N(C2CCC(=O)NC2=O)C3)c(=O)[nH]c1=O` (centres undefined): in data set [2], the half-life at 1 µM is 3.98 h. In addition, the Activity in data set [1] was 90%.

Regarding `O=C1CCC(N2Cc3ccc(S(=O)(=O)n4ccc(=O)[nH]c4=O)cc3C2=O)C(=O)N1` (centres undefined), the half-life at 1 µM in data set [2] is 2.72 h. Also, the Activity in data set [1] was 90%.

Regarding `O=C1CCC(N2Cc3ccc(OS(=O)(=O)F)cc3C2=O)C(=O)N1` (centres undefined), the Activity in [1] turned out to be 75%.

In the case of `O=C1CCC(N2Cc3ccc(S(=O)(=O)n4cnc(F)c4)cc3C2=O)C(=O)N1` (centres undefined), in [2], the half-life at 1 µM worked out at 0.317 h. The Activity in [1] was found to be 90%.

As to `O=C1CCC(N2Cc3ccc(S(=O)(=O)n4cncn4)cc3C2=O)C(=O)N1` (centres undefined), in data set [2], the half-life at 1 µM is under 0.0167 h. In data set [1], the Activity was determined as 90%.

`O=C1CCC(N2Cc3ccc(S(=O)(=O)n4ccnc4)cc3C2=O)C(=O)N1` (centres undefined): the outcome in the data set on MOLT-4 was inactive. Moreover, the half-life at 1 µM in data set [2] is 1.57 h; in data set [4] it was over 2.42 h. In addition, the CC50 at 24 h in data set [3] was over 10 µM. In addition, the half-life in data set [5] was over 3.62 h. The Activity in data set [1] was over 95%.

Consider `O=C1CCC(N2Cc3ccccc3C2=O)C(=O)N1` (centres undefined), for which the Drug metabolism result in data set [6] and in [7] was “Metabolite_Detected” in each case. Further, the CC50 at 24 h in [3] was over 10 µM. The half-life at 1 µM in data set [4] is over 2.42 h. Besides, in data set [5], the half-life was over 3.62 h.

Take `O=C1CCC(N2Cc3ccc(S(=O)(=O)F)cc3C2=O)C(=O)N1` (centres undefined): the IC50 on Protein cereblon is 0.0011 µM. In [1], the Activity is over 95%.

Take `Cc1cnn(S(=O)(=O)c2ccc3c(c2)C(=O)N(C2CCC(=O)NC2=O)C3)c1` (centres undefined): the half-life at 1 µM in data set [2] was over 4.82 h. The Activity in [1] is under 5%.

With `O=C1CCC(N2Cc3ccc(S(=O)(=O)n4cnc(C(F)(F)F)c4)cc3C2=O)C(=O)N1` (centres undefined), the half-life at 1 µM in data set [2] was 0.108 h. Further, the Activity in data set [1] was determined as 75%.

For `O=C1CCC(N2Cc3ccc(S(=O)(=O)n4cc(F)cn4)cc3C2=O)C(=O)N1` (centres undefined), the half-life at 1 µM in [2] was determined as 1.53 h. Besides, in data set [1], the Activity is 67%.

`Cc1cn(S(=O)(=O)c2ccc3c(c2)C(=O)N(C2CCC(=O)NC2=O)C3)cn1` (centres undefined): the half-life at 1 µM in [2] was found to be 4.78 h. In [1], the Activity is under 5%.

Consider `O=C1CCC(N2Cc3ccc(S(=O)(=O)n4ccc(C(F)(F)F)n4)cc3C2=O)C(=O)N1` (centres undefined), for which the half-life at 1 µM in data set [2] came out at 0.233 h. In data set [1], the Activity worked out at 90%.
